In US11708359B2, “Monoacylglycerol lipase modulators” (Janssen Pharmaceutica NV, priority 2020, dated 2023):

Biological target: human MGL from HeLa cells (Homo sapiens (Human), UniProt Q99685)
Assay: MGL in vitro activity assay ([glycerol-1,3-3H]-oleoyl glycerol cleavage, activated carbon filter)
Type: biochemical
Details: 300 nM [Glycerol-1,3-3H]-oleoyl glycerol, endogenously expressed MGL from HeLa cells, one hour incubation; read-out: MGL IC50
Procedure: The assay consists of combining endogenously expressed MGL from HeLa cells with test compounds, adding[glycerol-1,3-^3H]-oleoyl glycerol, incubating for one hour, and then measuring the amount of cleaved[1,3-^3H]-glycerol that passes through an activated carbon filter. The amount of cleaved, tritiated glycerol passing through the carbon filter is proportional to the activity of the MGL enzyme in a particular well/test condition.
Standard conditions for this assay combine 300 nM [Glycerol-1,3-^3H]-oleoyl glycerol with human MGL from HeLa cells and test compounds for one hour, after which the reaction is filtered through activated carbon and tritium is measured in the flow through. […] MGL is the predominant hydrolase in HeLa cells/cell homogenates.

human MGL from HeLa cells, sequence (Q99685 whole entry): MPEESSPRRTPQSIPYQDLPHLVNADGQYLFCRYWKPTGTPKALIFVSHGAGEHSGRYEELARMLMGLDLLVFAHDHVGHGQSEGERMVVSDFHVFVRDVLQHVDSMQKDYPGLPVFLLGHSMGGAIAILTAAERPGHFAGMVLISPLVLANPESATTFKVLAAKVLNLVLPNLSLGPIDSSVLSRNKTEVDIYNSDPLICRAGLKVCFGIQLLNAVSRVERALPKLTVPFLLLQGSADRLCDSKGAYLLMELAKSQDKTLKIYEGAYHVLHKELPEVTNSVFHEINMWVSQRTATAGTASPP

Structure (SMILES) | IC50 [nM]
O=C1CCC2(CC(C(=O)N3CC[C@@]4(c5ccc(OC(F)(F)F)cc5)C[C@H]4C3)C2)N1 (relative stereo) [Example 121, (2r,4*5)-2-((1*R,6*S)-6-(4-(Trifluoromethoxy)phenyl)-3-azabicyclo[4.1.0]heptane-3-carbonyl)-5-azaspiro[3.4]octan-6-one] | 42
O=C1CCC2(CC(C(=O)N3CC[C@]4(c5ccc(OC(F)(F)F)cc5)C[C@@H]4C3)C2)N1 (relative stereo) [Example 122, (2r,4*R)-2-((1*S,6*R)-6-(4-(Trifluoromethoxy)phenyl)-3-azabicyclo[4.1.0]heptane-3-carbonyl)-5-azaspiro[3.4]octan-6-one] | 12
CC(C)c1cccc([C@@]23C[C@@H]2CN(C(=O)[C@H]2C[C@]4(COC(=O)N4)C2)C3)c1 (stereo in doubt) [Example 7, (2s,4*5)-2-((1*R,5*5)-1-(3-Isopropylphenyl)-3-azabicyclo[3.1.0]hexane-3-carbonyl)-7-oxa-5-azaspiro[3.4]octan-6-one] | 5
CC(C)c1cccc([C@]23C[C@H]2CN(C(=O)[C@H]2C[C@]4(COC(=O)N4)C2)C3)c1 (stereo in doubt) [Example 8, (2s,4*R)-2-((1*S,5*R)-1-(3-Isopropylphenyl)-3-azabicyclo[3.1.0]hexane-3-carbonyl)-7-oxa-5-azaspiro[3.4]octan-6-one] | 11
CC(C)c1ccc([C@@]23C[C@@H]2CN(C(=O)[C@H]2C[C@]4(COC(=O)N4)C2)C3)cc1 (stereo in doubt) [Example 10, (2s,4*5)-2-((1*R,5*S)-1-(4-Isopropylphenyl)-3-azabicyclo[3.1.0]hexane-3-carbonyl)-7-oxa-5-azaspiro[3.4]octan-6-one] | 2.3
CC(C)c1ccc([C@]23C[C@H]2CN(C(=O)[C@H]2C[C@]4(COC(=O)N4)C2)C3)cc1 (stereo in doubt) [Example 11, (2s,4*R)-2-((1*S,5*R)-1-(4-Isopropylphenyl)-3-azabicyclo[3.1.0]hexane-3-carbonyl)-7-oxa-5-azaspiro[3.4]octan-6-one] | 2.3
CC(C)(C)c1ccc([C@@]23C[C@@H]2CN(C(=O)[C@H]2C[C@]4(CCC(=O)N4)C2)C3)cc1 (stereo in doubt) [Example 14, (2r,4*S)-2-((1*R,5*5)-1-(4-(tert-Butyl)phenyl)-3-azabicyclo[3.1.0]hexane-3-carbonyl)-5-azaspiro[3.4]octan-6-one] | 23
CC(C)(C)c1ccc([C@]23C[C@H]2CN(C(=O)[C@H]2C[C@]4(CCC(=O)N4)C2)C3)cc1 (stereo in doubt) [Example 15, (2r,4*R)-2-((1*S,5*R)-1-(4-(tert-Butyl)phenyl)-3-azabicyclo[3.1.0]hexane-3-carbonyl)-5-azaspiro[3.4]octan-6-one] | 12
Cc1cccc([C@]23CCN(C(=O)[C@H]4C[C@]5(COC(=O)N5)C4)C[C@H]2C3)c1 (stereo in doubt) [Example 44, (2s,4*R)-2-((1*S,6*R)-6-(m-Tolyl)-3-azabicyclo[4.1.0]heptane-3-carbonyl)-7-oxa-5-azaspiro[3.4]octan-6-one] | 2.8
Cc1cccc([C@@]23CCN(C(=O)[C@H]4C[C@]5(COC(=O)N5)C4)C[C@@H]2C3)c1 (stereo in doubt) [Example 45, (2s,4*5)-2-((1*R,6*S)-6-(m-Tolyl)-3-azabicyclo[4.1.0]heptane-3-carbonyl)-7-oxa-5-azaspiro[3.4]octan-6-one] | 32
Cc1ccc([C@]23CCN(C(=O)[C@H]4C[C@]5(COC(=O)N5)C4)C[C@H]2C3)cc1F (stereo in doubt) [Example 47, (2s,4*R)-2-((1*S,6*R)-6-(3-Fluoro-4-methylphenyl)-3-azabicyclo[4.1.0]heptane-3-carbonyl)-7-oxa-5-azaspiro[3.4]octan-6-one] | 21
Cc1ccc([C@@]23CCN(C(=O)[C@H]4C[C@]5(COC(=O)N5)C4)C[C@@H]2C3)cc1F (stereo in doubt) [Example 48, (2s,4*5)-2-((1*R,6*5)-6-(3-Fluoro-4-methylphenyl)-3-azabicyclo[4.1.0]heptane-3-carbonyl)-7-oxa-5-azaspiro[3.4]octan-6-one] | 1.3
O=C1N[C@]2(CO1)C[C@H](C(=O)N1CC[C@]3(c4cccc(OC(F)(F)F)c4)C[C@@H]3C1)C2 (stereo in doubt) [Example 50, (2s,4*R)-2-((1*S,6*R)-6-(3-(Trifluoromethoxy)phenyl)-3-azabicyclo[4.1.0]heptane-3-carbonyl)-7-oxa-5-azaspiro[3.4]octan-6-one] | 4.2
O=C1N[C@]2(CO1)C[C@H](C(=O)N1CC[C@@]3(c4cccc(OC(F)(F)F)c4)C[C@H]3C1)C2 (stereo in doubt) [Example 51, (2s,4*S)-2-((1*R,6*S)-6-(3-(Trifluoromethoxy)phenyl)-3-azabicyclo[4.1.0]heptane-3-carbonyl)-7-oxa-5-azaspiro[3.4]octan-6-one] | 0.52
CC(C)(C)c1cccc([C@H]2[C@@H]3CN(C(=O)[C@H]4C[C@]5(COC(=O)N5)C4)C[C@@]32C)c1 (stereo in doubt) [Example 93, (rac)-(2s,4*5)-2-((1*R,5*S,6*R)-6-(3-(tert-Butyl)phenyl)-1-methyl-3-azabicyclo[3.1.0]hexane-3-carbonyl)-7-oxa-5-azaspiro[3.4]octan-6-one] | 0.76
CC1(c2ccc([C@@]34C[C@@H]3CN(C(=O)[C@H]3C[C@]5(CCC(=O)N5)C3)C4)cc2)CC1 (stereo in doubt) [Example 95, (2r,4*S)-2-((1*R,5*5)-1-(4-(1-Methylcyclopropyl)phenyl)-3-azabicyclo[3.1.0]hexane-3-carbonyl)-5-azaspiro[3.4]octan-6-one] | 7.5
CC1(c2ccc([C@]34C[C@H]3CN(C(=O)[C@H]3C[C@]5(CCC(=O)N5)C3)C4)cc2)CC1 (stereo in doubt) [Example 96, (2r,4*R)-2-((1*S,5*R)-1-(4-(1-Methylcyclopropyl)phenyl)-3-azabicyclo[3.1.0]hexane-3-carbonyl)-5-azaspiro[3.4]octan-6-one] | 8.5
CC(C)(C)c1cccc([C@H]2[C@@H]3CN(C(=O)[C@H]4C[C@]5(COC(=O)N5)C4)C[C@@]32C)c1 (stereo in doubt) [Example 99, (2s,4*5)-2-((1*R,5*S,6*R)-6-(3-(tert-Butyl)phenyl)-1-methyl-3-azabicyclo[3.1.0]hexane-3-carbonyl)-7-oxa-5-azaspiro[3.4]octan-6-one] | 0.64
CC(C)(C)c1cccc([C@@H]2[C@H]3CN(C(=O)[C@H]4C[C@]5(COC(=O)N5)C4)C[C@]32C)c1 (stereo in doubt) [Example 100, (2s,4*R)-2-((1*S,5*R,6*5)-6-(3-(tert-Butyl)phenyl)-1-methyl-3-azabicyclo[3.1.0]hexane-3-carbonyl)-7-oxa-5-azaspiro[3.4]octan-6-one] | 8.3
O=C1N[C@]2(CO1)C[C@H](C(=O)N1C[C@@H]3[C@H](C1)[C@H]3c1cccc(OC(F)(F)F)c1)C2 [Example 38, (2s,4S)-2-((1R,5S,6S)-6-(3-(Trifluoromethoxy)phenyl)-3-azabicyclo[3.1.0]hexane-3-carbonyl)-7-oxa-5-azaspiro[3.4]octan-6-one] | 21
